Reference: paper PMC12302338, “Functional genomics and structural insights into maize aldo-keto reductase-4 family: Stress metabolism and substrate specificity in embryos” (The Journal of Biological Chemistry, 2025)

Target: T1, ZmAKR4C13 (Zea mays, UniProt E9JVD4)
T1 construct: gene AR3; monomer
Assay: X-ray crystallography
Assay type: binding
Settings: 5JGW 2.30 Å (P2_12_12_1); 5JGY 1.45 Å (P2_1), partial occupancy
From the text: X-ray crystallography on ZmAKR4C13 | b32; b72

T1 sequence (E9JVD4 1-319): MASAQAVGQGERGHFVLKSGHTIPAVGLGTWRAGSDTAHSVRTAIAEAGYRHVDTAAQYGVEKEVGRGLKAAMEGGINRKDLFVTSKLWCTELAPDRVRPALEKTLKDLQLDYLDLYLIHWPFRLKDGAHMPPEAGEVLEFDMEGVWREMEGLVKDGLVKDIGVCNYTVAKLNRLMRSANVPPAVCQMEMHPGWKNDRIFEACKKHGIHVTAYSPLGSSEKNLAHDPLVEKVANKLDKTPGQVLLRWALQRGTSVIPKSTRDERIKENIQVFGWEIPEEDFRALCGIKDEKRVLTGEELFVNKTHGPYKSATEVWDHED

X-ray crystallography: b32; b72
Compound: NC(=O)c1ccc[n+]([C@@H]2O[C@H](COP(=O)(O)OP(=O)(O)OC[C@H]3O[C@@H](n4cnc5c(N)ncnc54)[C@H](OP(=O)(O)O)[C@@H]3O)[C@@H](O)[C@H]2O)c1 [NADP+]
